Laboratory results taken from patent publication US20190105337A1, “METHODS OF TREATING BACTERIAL INFECTIONS” (priority 2015, published 2019).

Tests used:
[1] = Example 6: noncompartmental plasma pharmacokinetics after third dose of the Combination (2 g meropenem/2 g Compound I q8h); conditions: for Vss / clearance / Cmax / Tmax: Compound I 2 g q8h; for AUC(0-t) / clearance / Cmax / Tmax / half-life: both, human, plasma, intravenous; for AUC(0-t): AUC0-8, Compound I 2 g q8h; for clearance: CL; for half-life: t1/2, Compound I 2 g q8h
Protocol: A total of twenty-five (n=25) male and female subjects who met the study entry criteria and completed all phases of the pharmacokinetic study were included in this pharmacokinetic analysis. […] Blood samples were collected to measure drug concentrations in plasma prior to (time 0), and at 1.5, 2.95, 3.083, 3.25, 3.5, 4, 6, and 8 hours after the start of a 3-hour intravenous infusion of the third combination dose.
(Reports MC14B-0013, MC14B-0015, MC14I-011, and MC14I-0012). The urea concentrations in plasma and BAL were performed with a microplate-based method with an 0-phthalaldehyde chromogenic solution at MicroConstants, Inc., San Diego, Calif.
Peak plasma concentration (Cmax) and time to Cmax (Tmax) were read from the observed plasma concentration-time profile after the start of the intravenous infusion of the third Combination dose. Area under the plasma concentration-time curve over 8 hours (AUC0-8) after the third dose was calculated with the linear-log trapezoidal rule (WinNonlin®, version 6.3, Pharsight Corporation, Cary, N.C.). The elimination rate constant (β) was determined by nonlinear least-squares regression. Elimination half-life (t½) was calculated by dividing β into the natural logarithm of two.

[2] = Example 1: safety and tolerability of Compound I in healthy adult subjects; format: in vivo, human
Protocol: 56 healthy subjects were enrolled into one of 7 cohorts of 8 subjects each in the single ascending dose phase (250 mg, 500 mg, 750 mg, 1000 mg, 1250 mg, 1500 mg and 2000 mg). Thirty-two additional subjects were then enrolled into one of 4 cohorts in the multiple-dose phase (250 mg, 1000 mg, 1500 mg, and 2000 mg, given q8 h for 7 days). […] All infusions were administered over 3 hours. Plasma and urine samples were obtained after single or multiple doses and assayed for Compound I content using a validated HPLC/MS method.

[3] = clinical; conditions: human, in vivo; for clearance: Plasma Clearance; for Vd: Vss
Protocol: The combination of both drugs was administered on day 7. All drugs were infused over 3 hours. Plasma and urine samples were obtained and assayed using validated HPLC/MS methods.

Work on `O=C(O)C[C@@H]1CC[C@H](NC(=O)Cc2cccs2)B(O)O1` [Compound I] yielded a Vss ([1]; 1.5-hour BAL Sampling Group) of 18.6 ± 2.3 L, a Vss ([1]; 3.25-hour BAL Sampling Group) of 17.3 ± 2.3 L and a Vss ([1]; 4-hour BAL Sampling Group) of 16.9 ± 0.9 L. It also gave a Vss ([1]; 6-hour BAL Sampling Group) of 18.1 ± 3.9 L, a Vss ([1]; 8-hour BAL Sampling Group) of 17.0 ± 3.3 L and a Vss ([1]; All Subjects) of 17.6 ± 2.6 L. It also gave an AUC(0-t) ([1]; 1.5-hour BAL Sampling Group) of 184 ± 38.6 µg·h/mL, an AUC(0-t) ([1]; 3.25-hour BAL Sampling Group) of 210 ± 32.2 µg·h/mL and an AUC(0-t) ([1]; 4-hour BAL Sampling Group) of 214 ± 35.4 µg·h/mL. It also gave an AUC(0-t) ([1]; 6-hour BAL Sampling Group) of 216 ± 33.7 µg·h/mL, an AUC(0-t) ([1]; 8-hour BAL Sampling Group) of 198 ± 36.6 µg·h/mL and an AUC(0-t) ([1]; All Subjects) of 204 ± 34.6 µg·h/mL. It also gave a clearance ([1]; 1.5-hour BAL Sampling Group) of 188 mL/min, a clearance ([1]; 3.25-hour BAL Sampling Group) of 162 mL/min and a clearance ([1]; 4-hour BAL Sampling Group) of 158 mL/min. For the same molecule, the clearance ([1]; 6-hour BAL Sampling Group) was 158 mL/min, the clearance ([1]; All Subjects) was 168 mL/min and the Cmax ([1]; 1.5-hour BAL Sampling Group) was 56.1 ± 13 µg/mL. For the same molecule, the Cmax ([1]; 3.25-hour BAL Sampling Group) was 59.7 ± 5.8 µg/mL, the Cmax ([1]; 4-hour BAL Sampling Group) was 60.1 ± 5.7 µg/mL and the Cmax ([1]; 6-hour BAL Sampling Group) was 60.9 ± 9.7 µg/mL. It also gave a Cmax ([1]; 8-hour BAL Sampling Group) of 57.9 ± 8.8 µg/mL, a Cmax ([1]; All Subjects) of 59 ± 8.4 µg/mL and a Tmax ([1]; 1.5-hour BAL Sampling Group) of 2.95 ± 0.01 h. For the same molecule, the Tmax ([1]; 3.25-hour BAL Sampling Group) was 3 ± 0.07 h, the Tmax ([1]; 4-hour BAL Sampling Group) was 2.98 ± 0.06 h and the Tmax ([1]; 6-hour BAL Sampling Group) was 3 ± 0.07 h. For the same molecule, the Tmax ([1]; 8-hour BAL Sampling Group) was 2.98 ± 0.06 h, the Tmax ([1]; All Subjects) was 2.98 ± 0.06 h and the half-life ([1]; 1.5-hour BAL Sampling Group) was 1.18 ± 0.08 h. For the same molecule, the half-life ([1]; 3.25-hour BAL Sampling Group) was 1.26 ± 0.23 h, the half-life ([1]; 4-hour BAL Sampling Group) was 1.34 ± 0.26 h and the half-life ([1]; 6-hour BAL Sampling Group) was 1.37 ± 0.27 h. For the same molecule, the half-life ([1]; 8-hour BAL Sampling Group) was 1.18 ± 0.16 h, the half-life ([1]; All Subjects) was 1.27 ± 0.21 h and the “serious adverse events (SAEs)” value ([2]; 250-2000 mg) was “no serious adverse events”. For the same molecule, the “severity of AEs” value ([2]; 250-2000 mg) was “all AEs were mild or moderate”, the safety and tolerability ([2]; all doses tested) was “safe and well tolerated at all doses tested” and the AUC(0-inf) ([3]; 250 mg) was 17.5 µg·h/mL. For the same molecule, the Cmax ([3]; 250 mg) was 5.2 µg/mL, the half-life ([3]; 250 mg) was 1.18 h and the clearance ([3]; 250 mg) was 245 mL/min. For the same molecule, the Vd ([3]; 250 mg) was 23.1 L, the AUC(0-inf) ([3]; 1000 mg) was 77.6 µg·h/mL and the Cmax ([3]; 1000 mg) was 22 µg/mL. For the same molecule, the half-life ([3]; 1000 mg) was 1.56 h, the clearance ([3]; 1000 mg) was 222 mL/min and the Vd ([3]; 1000 mg) was 21.4 L. For the same molecule, the AUC(0-inf) ([3]; 1500 mg) was 124 µg·h/mL, the Cmax ([3]; 1500 mg) was 37.2 µg/mL and the half-life ([3]; 1500 mg) was 1.21 h. It also gave a clearance ([3]; 1500 mg) of 206 mL/min and a Vd ([3]; 1500 mg) of 19.4 L.
